In US20150105252A1, “SUBSTITUTED PYRAZOLES AS HERBICIDES” (E I DU PONT DE NEMOURS AND COMPANY, priority 2013, published 2015):

Tests used:
Details in all cases: scale 0 to 100
[1] = test system: kochia; experiment: Test F postemergence; format: in vivo, Kochia scoparia
From the text: (§1) Seeds of plant species selected from corn (Zea mays), soybean (Glycine max), velvetleaf (Abutilon theophrasti), lambsquarters (Chenopodium album), wild poinsettia (Euphorbia heterophylla), pigweed, palmer (palmer pigweed, Amaranthus palmeri), common waterhemp (Amaranthus rudis), surinam grass (Brachiaria decumbens), large crabgrass (Digitaria sanguinalis), crabgrass, Brazil (Brazilian crabgrass, Digitaria horizontalis), fall panicum (Panicum dichotomiflorum), giant foxtail (Setaria faberii), green foxtail (Setaria viridis), goosegrass (Eleusine indica), johnsongrass (Sorghum halepense), common ragweed (Ambrosia elation), barnyardgrass (Echinochloa crus-galli), southern sandbur (Cenchrus echinatus), arrowleaf sida (Sida rhombifolia), Italian ryegrass (Lolium multiflorum), dayflower, VA (Virginia (VA) dayflower, Commelina virginica), field bindweed (Convolvulus arvensis), cocklebur (common cocklebur, Xanthium strumarium), morningglory (Ipomoea coccinea), nightshade (eastern black nightshade, Solanum ptycanthum), kochia (Kochia scoparia), yellow nutsedge (Cyperus esculentus), and hairy beggarticks (Bidens pilosa), were planted into a silt loam soil and treated preemergence with test chemicals formulated in a non-phytotoxic solvent mixture which included a surfactant.
(§2) At the same time, plants from these crop and weed species and also horseweed (Canada horseweed, Conyza canadensis), smartweed (ladysthumb smartweed, Polygonum persicaria), waterhemp_RES1, (ALS & Triazine resistant common waterhemp, Amaranthus rudis), and waterhemp_RES2, (ALS & HPPD resistant common waterhemp, Amaranthus rudis) were treated with postemergence applications of test chemicals formulated in the same manner. Plants ranged in height from 2 to 18 cm for postemergence treatments (1- to 4-leaf stage). Treated plants and controls were maintained in a greenhouse for 14 to 21 days, after which time all species were compared to controls and visually evaluated. Plant response ratings, summarized in Table F, are based on a scale of 0 to 100 where 0 is no effect and 100 is complete control. A dash (-) response means no test result.

[2] = test system: oat, wild; experiment: Test D preemergence; format: in vivo, Avena fatua
Method in brief: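 Postemergence activity was tested on plants at the 1- to 4-leaf stage (2–18 cm) grown in peat-based medium, and preemergence activity on seeds in silt loam, with chemicals in a surfactant-containing non-phytotoxic solvent. Controlled-environment growth lasted 14–21 days before visual 0–100 scoring.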

[3] = test system: waterhemp_RES1 (ALS & Triazine resistant common waterhemp); experiment: Test F postemergence; format: in vivo, Amaranthus rudis
Method in brief: (§3)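 Percent-control style visual scores, from 0 (no effect) to 100 (complete control), were given relative to controls. Treatment timing: preemergence on silt loam plantings, or postemergence at 1- to 4-leaf stage. Evaluation came 14 to 21 days after spraying, greenhouse conditions.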

[4] = test system: waterhemp_RES2 (ALS & HPPD resistant common waterhemp); experiment: Test F postemergence; format: in vivo, Amaranthus rudis
Method in brief: as §3

[5] = test system: fall panicum; experiment: Test F postemergence; format: in vivo, Panicum dichotomiflorum
From the text: as §1, §2

For CCOc1cc(C(=O)NC(C)C)nn1Cc1ccnc(C(F)(F)F)c1 [Compound 188], the “Plant response rating, Kochia” value ([1]; Postemergence, 31 g ai/ha) was 40, the “Plant response rating, Kochia” value ([1]; Postemergence, 125 g ai/ha) was 95 and the “Plant response rating, Kochia” value ([1]; Postemergence, 250 g ai/ha) was 90. For the same compound, the “Plant response rating, Kochia” value ([1]; postemergence, 62 g ai/ha) was 60, the “Plant response rating, Kochia” value ([1]; postemergence, 500 g ai/ha) was 95 and the “Plant response rating, Oat, Wild” value ([2]; 62 g ai/ha) was 100. The “Plant response rating, Oat, Wild” value ([2]; 125 g ai/ha) was 100, the “Plant response rating, Oat, Wild” value ([2]; 250 g ai/ha) was 100 and the “Plant response rating, Waterhemp_RES1” value ([3]; Postemergence, 31 g ai/ha) was 60. The “Plant response rating, Waterhemp_RES1” value ([3]; Postemergence, 125 g ai/ha) was 50, the “Plant response rating, Waterhemp_RES1” value ([3]; Postemergence, 250 g ai/ha) was 80 and the “Plant response rating, Waterhemp_RES1” value ([3]; postemergence, 62 g ai/ha) was 70. The “Plant response rating, Waterhemp_RES1” value ([3]; postemergence, 500 g ai/ha) was 85, the “Plant response rating, Waterhemp_RES2” value ([4]; Postemergence, 31 g ai/ha) was 65 and the “Plant response rating, Waterhemp_RES2” value ([4]; Postemergence, 125 g ai/ha) was 50. For the same compound, the “Plant response rating, Waterhemp_RES2” value ([4]; Postemergence, 250 g ai/ha) was 50, the “Plant response rating, Waterhemp_RES2” value ([4]; postemergence, 62 g ai/ha) was 70 and the “Plant response rating, Waterhemp_RES2” value ([4]; postemergence, 500 g ai/ha) was 60. For the same compound, the “Plant response rating, Fall Panicum” value ([5]; Postemergence, 31 g ai/ha) was 20, the “Plant response rating, Fall Panicum” value ([5]; Postemergence, 125 g ai/ha) was 55 and the “Plant response rating, Fall Panicum” value ([5]; Postemergence, 250 g ai/ha) was 75. The “Plant response rating, Fall Panicum” value ([5]; postemergence, 62 g ai/ha) was 20 and the “Plant response rating, Fall Panicum” value ([5]; postemergence, 500 g ai/ha) was 90.
